{"source": "paper PMC6145916", "about": "“Interaction of mitochondrial fission factor with dynamin related protein 1 governs physiological mitochondrial function in vivo” (Scientific Reports, 2018)", "key": {"primary cortical neurons": {"tested_on": "primary cortical neurons", "test": "Mitochondrial ROS (MitoSox Red), primary cortical neurons", "format": "cell-based, rat", "settings": "overnight treatment; n = 3, with 3 replicates", "description": "Bottom, quantification of the form factor (degree of branching) and aspect ratio (major/minor axis length). At least 10,000 mitochondrial fragments were analyzed for each condition. Mitochondrial reactive oxygen species production (MitoSox Red) (b) and membrane potential (TMRM) (c) after overnight treatment with indicated concentrations of peptide (n = 3, with 3 replicates). […] Overlay of live microscopy imaging at time 0 (green) and 150 (red) seconds. […] An estimation of the % mobile mitochondria from the Pearson coefficient of each set of images. Data are mean ± s.e.\n(§1) Following treatment, cells were washed with treatment media.\nThe Cy5 filter was used to autofocus on the mitochondria plane. Nuclei were imaged with a DAPI filter and the mitoROS (MitoSox) or membrane potential (TMRM) image was acquired with a TRITC filter. […] MitoROS was calculated as the average MitoSox signal per cell. The mitochondrial membrane potential was calculated as the average TMRM signal in the mitochondrial mask.\nMitochondrial reactive oxygen species determination […]\nand 1% penicillin-streptomycin solution (Corning, NY, USA). Primary cortical neurons were treated with increasing concentrations of peptides in NbActiv1 media. HD Patient- and adult- […]\nand without phenol red. […] After incubation\nHEPES, and without phenol red. […]\n(§2) calculated as the average MitoSox signal per cell. […]"}, "SH-SY5Y cells": {"tested_on": "SH-SY5Y cells", "test": "Mitochondrial membrane potential (TMRM), SH-SY5Y", "format": "cell-based, human", "settings": "overnight treatment, normalized to no peptide; 3 independent experiments", "description": "Represented Western blot is cropped from a full blot shown in the Expanded Western Blots section of the Supplementary Information. […] Hoechst 33342 is shown in blue and Tom20 in green (n = 3, 10 images each). Below, quantification of the form factor (degree of branching) and major axis length (length of mitochondria). At least 6,000 mitochondrial fragments were measured for each condition. Mitochondrial reactive oxygen species (ROS) production (MitoSox Red) (c) and mitochondrial membrane potential (TMRM) (d) after overnight treatment with indicated concentrations of peptide or FCCP. Data are from 3 independent experiments per condition normalized to the average no peptide value. (e) Relative mitochondrial ROS (MitoSox Red) signal in GFP positive cells expressing full-length or alanine-substituted P259 at indicated amino acids after two days of transfection. Values are normalized to a GFP empty vector (n = 3, with 3 replicates). […] Data are mean ± s.e.\nas §1\nThe Cy5 filter was used to autofocus on the mitochondria plane. […] MitoROS was calculated as the average MitoSox signal per cell. The mitochondrial membrane potential was calculated as the average TMRM signal in the mitochondrial mask. […]\nas §2"}, "Mff-Drp1 interaction": {"tested_on": "Mff-Drp1 interaction", "test": "Co-immunoprecipitation of recombinant Drp1 with Mff", "format": "binding, human", "settings": "1 µM P259, 2 hours at 4 °C, 200 ng Drp1, 200 ng adaptor, RIPA buffer; representative blot of two independent experiments", "source_text": "Figure 1 Rational peptide design identifies a novel inhibitor of the Mff-Drp1 protein-protein interaction. (a) A scheme of the rationale behind the inhibitor design. […] Surface and ribbon diagrams of Drp1 structure (PDB, 4BEJ) with the GTPase, bundle signaling element (BSE), and stalk domains highlighted. (d) A heatmap representing sequence conservation of human proteins that contain a region similar to P259. Sequence conservation corresponds to the number of residues similar/identical to P259 from each sequence. […] The obtained graph is of the mean standardized response and ± s.e. as a function of time for n = 3 individual experiments, with 3 technical replicates each. […]\nProtein binding to the surface was obtained through current measurements during a voltage sweep by a potentiostat. […] After calibration with 30 µL RIPA buffer for 3 minutes, […] of 100 nM protein was incubated over the surface for 3 minutes as sensor response w as measured. Disso ciation was measured by re-applying 30 µL of RIPA buffer. […]\nThe standardized response value was calculated by the following equation: […]\nKD values were subsequently calculated using the binding and dissociation curves and the analysis software provided by the manufacturer (Nanomedical Diagnostics). […]\nProtein content was measured using Bradford protein assay dye (Bio-Rad, CA, USA) and subsequently standardized. […]"}}, "note": "Where no end group is shown, it is not given here."}
{"substance": "YGRKKRRQRRRGSGIIQLPEIVVV-NH2 (C-terminus assumed) [P259]", "values": [{"measurement": "mitochondrial ROS", "setting": "primary cortical neurons", "result": "increased mitochondrial ROS"}, {"measurement": "mitochondrial membrane potential", "setting": "SH-SY5Y cells", "result": "mitochondrial depolarization"}, {"measurement": "Mff binding to co-immunoprecipitated recombinant Drp1", "setting": "Mff-Drp1 interaction", "result": "abolished Mff binding"}]}
